According to US20090057618A1, “Corrosion inhibitors containing amphoteric surfactants” (Clariant International Ltd., priority 2007, published 2009):

Test: Shell wheel test (corrosion inhibition)
Conditions: 50 ppm of a 24% solution of the inhibitor; salt water/petroleum 9:1, 5% NaCl, pH 3.5; 40 rpm, 70° C., 24 hours; from decrease in coupon mass vs blank
Description: The compounds according to the invention were tested as corrosion inhibitors in the Shell wheel test. Coupons of C steel (DIN 1.1203 with 15 cm^2 surface area) were immersed in a salt water/petroleum mixture (9:1, 5% strength NaCl solution adjusted to pH 3.5 with acetic acid) and exposed to this medium at a speed of 40 rpm at 70° C. for 24 hours. The inhibitor dose was 50 ppm of a 24% solution of the inhibitor. The protection values were calculated from the decrease in the mass of the coupons, based on a blank value.

CCCCCCCC/C=C\CCCCCCCC(=O)NC(CCSC)C(=O)[O-].[K+] (racemic) [Example 2, N-Oleoyl-DL-methionine Potassium Salt]
ø protection %: 69%
